Data published in US10787462B2, “Heterocyclic compound” (TAKEDA PHARMACEUTICAL COMPANY LIMITED, priority 2015, dated 2020).

Target: T1, human RIPK1 (1-375) (Homo sapiens, UniProt Q13546)
T1 construct: human RIPK1 (1-375) gene; GST; made in house; host or cells: Sf-9 insect cells
T1 sequence (Q13546 1-375): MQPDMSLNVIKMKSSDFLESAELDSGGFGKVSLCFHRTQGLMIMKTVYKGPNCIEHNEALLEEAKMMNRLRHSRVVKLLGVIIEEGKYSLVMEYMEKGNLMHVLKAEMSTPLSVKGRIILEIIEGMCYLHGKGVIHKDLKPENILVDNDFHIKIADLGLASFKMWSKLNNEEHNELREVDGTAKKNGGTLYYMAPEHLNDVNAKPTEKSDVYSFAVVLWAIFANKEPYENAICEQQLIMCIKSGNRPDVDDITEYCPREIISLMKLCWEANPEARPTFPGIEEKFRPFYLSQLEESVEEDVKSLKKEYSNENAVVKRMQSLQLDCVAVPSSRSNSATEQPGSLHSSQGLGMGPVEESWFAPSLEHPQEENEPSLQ
Experiment: Human RIPK1 enzyme inhibitory effect (ADP-Glo Kinase Assay)
Assay type: biochemical
Conditions: well without enzyme = 100% inhibition; for inhibition at 10 µM: read-out: human RIPK1 enzyme inhibitory effect at 10 μM (% inhibition), 10 μM test compound; for human RIPK1 enzyme inhibitory effect at 10 μM (% inhibition): 10 μM test compound
In short: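 ADP-Glo luminescence read-out of ADP formed over 120 min at room temperature after adding 0.6 mM ATP solution (stock concentration). Compound and Sf-9-expressed, GST-purified RIPK1 (1-375) were first incubated together for 20 min in HEPES pH 7.5 buffer with MgCl2, Tween-20 and DTT.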

| Compound | inhibition at 10 µM | human RIPK1 enzyme inhibitory effect at 10 μM (% inhibition) |
| --- | --- | --- |
| CN1C(=O)[C@@H](N2CCn3cc(Cc4ccccc4)nc3C2=O)COc2ccccc21 [Example 7, (3S)-3-(2-benzyl-8-oxo-5,6-dihydroimidazo[1,2-a]pyrazin-7(8H)-yl)-5-methyl-2,3-dihydro-1,5-benzoxazepin-4(5H)-one] | 91% | – |
| CN1C(=O)[C@@H](N2CCc3c(nn(Cc4ccccc4)c3C#N)C2=O)COc2ccccc21 [Example 12, 2-benzyl-6-((3S)-5-methyl-4-oxo-2,3,4,5-tetrahydro-1,5-benzoxazepin-3-yl)-7-oxo-4,5,6,7-tetrahydro-2H-pyrazolo[3,4-c]pyridine-3-carbonitrile] | 100% | – |
| CNC(=O)c1ccc2c(c1)CCC(N1CCc3c(nn(Cc4ccccc4)c3Cl)C1=O)C(=O)N2C (stereo not shown) [Example 136, 3-(2-benzyl-3-chloro-7-oxo-2,4,5,7-tetrahydro-6H-pyrazolo[3,4-c]pyridin-6-yl)-N,1-dimethyl-2-oxo-2,3,4,5-tetrahydro-1H-1-benzazepine-7-carboxamide] | – | 101% |
| CN1C(=O)[C@@H](N2CCc3cn(Cc4ccc(F)cc4)nc3C2=O)COc2ccccc21 [Example 157, (3S)-3-(2-(4-fluorobenzyl)-7-oxo-2,4,5,7-tetrahydro-6H-pyrazolo[3,4-c]pyridin-6-yl)-5-methyl-2,3-dihydro-1,5-benzoxazepin-4(5H)-one] | 95% | – |
| CN1C(=O)C(N2CCc3c(nn(Cc4ccccc4F)c3Cl)C2=O)CCc2ccncc21 (stereo not shown) [Example 103, 3-(3-chloro-2-(2-fluorobenzyl)-7-oxo-2,4,5,7-tetrahydro-6H-pyrazolo[3,4-c]pyridin-6-yl)-1-methyl-1,3,4,5-tetrahydro-2H-pyrido[3,4-b]azepin-2-one] | 99% | – |
| CN1C(=O)C(N2CCc3c(nn(Cc4c(F)cccc4F)c3Cl)C2=O)CCc2c1cnn2C (stereo not shown) [Example 134, 6-(3-chloro-2-(2,6-difluorobenzyl)-7-oxo-2,4,5,7-tetrahydro-6H-pyrazolo[3,4-c]pyridin-6-yl)-1,4-dimethyl-4,6,7,8-tetrahydropyrazolo[4,3-b]azepin-5(1H)-one] | – | 93% |
| CNC(=O)c1ccc2c(c1)OC[C@H](N1CCc3cn(Cc4ccccc4F)nc3C1=O)C(=O)N2C [Example 117, (3S)-3-(2-(2-fluorobenzyl)-7-oxo-2,4,5,7-tetrahydro-6H-pyrazolo[3,4-c]pyridin-6-yl)-N,5-dimethyl-4-oxo-2,3,4,5-tetrahydro-1,5-benzoxazepine-8-carboxamide] | 101% | – |
| CN1C(=O)[C@@H](N2CCc3cn(CC4COCCO4)nc3C2=O)COc2ccccc21 (stereo partly drawn) [Example 38, (3S)-3-(2-(1,4-dioxan-2-ylmethyl)-7-oxo-2,4,5,7-tetrahydro-6H-pyrazolo[3,4-c]pyridin-6-yl)-5-methyl-2,3-dihydro-1,5-benzoxazepin-4(5H)-one] | 96% | – |
| CN1C(=O)[C@@H](N2CCc3cn(Cc4ccccc4F)nc3C2=O)COc2ccc(Br)cc21 [Example 138, (3S)-7-bromo-3-(2-(2-fluorobenzyl)-7-oxo-2,4,5,7-tetrahydro-6H-pyrazolo[3,4-c]pyridin-6-yl)-5-methyl-2,3-dihydro-1,5-benzoxazepin-4(5H)-one] | 101% | – |
| CN1C(=O)C(N2CCc3c(nn(Cc4ccccc4)c3Cl)C2=O)CCc2cn(C)nc21 (stereo not shown) [Example 113, 6-(2-benzyl-3-chloro-7-oxo-2,4,5,7-tetrahydro-6H-pyrazolo[3,4-c]pyridin-6-yl)-2,8-dimethyl-2,5,6,8-tetrahydropyrazolo[3,4-b]azepin-7(4H)-one] | – | 61% |
| CN1C(=O)[C@@H](N2CCc3c(nn(Cc4ccccc4)c3-c3cnn(C)c3)C2=O)COc2ccccc21 [Example 169, (3S)-3-(2-benzyl-3-(1-methyl-1H-pyrazol-4-yl)-7-oxo-2,4,5,7-tetrahydro-6H-pyrazolo[3,4-c]pyridin-6-yl)-5-methyl-2,3-dihydro-1,5-benzoxazepin-4(5H)-one] | 80% | – |
| N#Cc1ccc2c(c1)OC[C@H](N1CCc3c(nn(Cc4ccccc4)c3Cl)C1=O)C(=O)N2 [Example 83, (3S)-3-(2-benzyl-3-chloro-7-oxo-2,4,5,7-tetrahydro-6H-pyrazolo[3,4-c]pyridin-6-yl)-4-oxo-2,3,4,5-tetrahydro-1,5-benzoxazepine-8-carbonitrile] | 92% | – |
| CN(C)C(=O)c1ccc2c(c1)N(C)C(=O)[C@@H](N1CCc3c(nn(Cc4ccccc4)c3Cl)C1=O)CO2 [Example 90, (3S)-3-(2-benzyl-3-chloro-7-oxo-2,4,5,7-tetrahydro-6H-pyrazolo[3,4-c]pyridin-6-yl)-N,N,5-trimethyl-4-oxo-2,3,4,5-tetrahydro-1,5-benzoxazepine-7-carboxamide] | 101% | – |
| CN1C(=O)[C@@H](N2CCc3cn(Cc4ccccc4)nc3C2=O)COc2ccc(C#N)cc21 [Example 14, (3S)-3-(2-benzyl-7-oxo-2,4,5,7-tetrahydro-6H-pyrazolo[3,4-c]pyridin-6-yl)-5-methyl-4-oxo-2,3,4,5-tetrahydro-1,5-benzoxazepine-7-carbonitrile] | 100% | – |
| CN1C(=O)[C@@H](N2CCc3cn(Cc4ccccc4)nc3C2=O)COc2cc(F)ccc21 [Example 152, (3S)-3-(2-benzyl-7-oxo-2,4,5,7-tetrahydro-6H-pyrazolo[3,4-c]pyridin-6-yl)-8-fluoro-5-methyl-2,3-dihydro-1,5-benzoxazepin-4(5H)-one] | 99% | – |
| O=C1Nc2ccccc2CCC1N1CCc2cn(Cc3ccccc3)nc2C1=O (stereo not shown) [Example 3, 3-(2-benzyl-7-oxo-2,4,5,7-tetrahydro-6H-pyrazolo[3,4-c]pyridin-6-yl)-1,3,4,5-tetrahydro-2H-1-benzazepin-2-one] | 97% | – |
| CN1C(=O)[C@@H](N2CCc3cn(Cc4c(F)cccc4F)nc3C2=O)COc2ccccc21 [Example 24, (3S)-3-(2-(2,6-difluorobenzyl)-7-oxo-2,4,5,7-tetrahydro-6H-pyrazolo[3,4-]pyridin-6-yl)-5-methyl-2,3-dihydro-1,5-benzoxazepin-4(5H)-one] | 101% | – |
| CN1C(=O)[C@@H](N2CCc3cn(Cc4ccccn4)nc3C2=O)COc2ccccc21 [Example 32, (3S)-5-methyl-3-(7-oxo-2-(pyridin-2-ylmethyl)-2,4,5,7-tetrahydro-6H-pyrazolo[3,4-c]pyridin-6-yl)-2,3-dihydro-1,5-benzoxazepin-4(5H)-one] | 97% | – |
| CN1C(=O)[C@@H](N2CCc3cn(Cc4ccccc4)nc3C2=O)COc2cc(Br)ccc21 [Example 41, (3S)-3-(2-benzyl-7-oxo-2,4,5,7-tetrahydro-6H-pyrazolo[3,4-c]pyridin-6-yl)-8-bromo-5-methyl-2,3-dihydro-1,5-benzoxazepin-4(5H)-one] | 101% | – |
| CN1C(=O)[C@@H](N2CCc3c(nn(Cc4cnccn4)c3Cl)C2=O)COc2cc(Cl)ccc21 [Example 146, (3S)-8-chloro-3-(3-chloro-7-oxo-2-(pyrazin-2-ylmethyl)-2,4,5,7-tetrahydro-6H-pyrazolo[3,4-c]pyridin-6-yl)-5-methyl-2,3-dihydro-1,5-benzoxazepin-4(5H)-one] | 101% | – |
| CN1C(=O)C(N2CCc3c(nn(Cc4ccccc4)c3Cl)C2=O)CCc2c1cnn2C (stereo not shown) [Example 127, 6-(2-benzyl-3-chloro-7-oxo-2,4,5,7-tetrahydro-6H-pyrazolo[3,4-c]pyridin-6-yl)-1,4-dimethyl-4,6,7,8-tetrahydropyrazolo[4,3-b]azepin-5(1H)-one] | – | 100% |
| CN1C(=O)[C@@H](N2CCc3cn(Cc4ccccc4)nc3C2=O)COc2ccc(C(N)=O)cc21 [Example 72, (3S)-3-(2-benzyl-7-oxo-2,4,5,7-tetrahydro-6H-pyrazolo[3,4-c]pyridin-6-yl)-5-methyl-4-oxo-2,3,4,5-tetrahydro-1,5-benzoxazepine-7-carboxamide] | 99% | – |
| CN1C(=O)[C@@H](N2CCc3cn(Cc4ccc(Cl)cc4)nc3C2=O)COc2ccccc21 [Example 20, (3S)-3-(2-(4-chlorobenzyl)-7-oxo-2,4,5,7-tetrahydro-6H-pyrazolo[3,4-c]pyridin-6-yl)-5-methyl-2,3-dihydro-1,5-benzoxazepin-4(5H)-one] | 100% | – |
| CN1C(=O)[C@@H](N2CCc3cn(Cc4ccccc4Cl)nc3C2=O)COc2ccccc21 [Example 25, (3S)-3-(2-(2-ohlorobenzy)-7-oxo-2,4,5,7-tetrahydro-6H-pyrazolo[3,4-c]pyridin-6-yl)-5-methyl-2,3-dihydro-1,5-benzoxazepin-4(5H)-one] | 100% | – |
| CN1C(=O)[C@@H](N2CCc3c(nn(Cc4ccccc4)c3Cl)C2=O)COc2cc(C(=O)NCCOCCOCCOCCOc3ccc4ccccc4c3)ccc21 [Example 148, (3S)-3-(2-benzyl-3-chloro-7-oxo-2,4,5,7-tetrahydro-6H-pyrazolo[3,4-c]pyridin-6-yl)-5-methyl-N-(2-(2-(2-(2-(2-naphthyloxy)ethoxy)ethoxy)ethoxy)ethyl)-4-oxo-2,3,4,5-tetrahydro-1,5-benzoxazepine-8-carboxamide] | 101% | – |
